Source: PubChem BioAssay (NCI)
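Step 1: Grow cells in 96-well plates. Step 2: Expose to compound for 48 hours at 5 concentrations. Step 3: Interpolate endpoints linearly; if unreached, use highest concentration. Here, GI50 denotes the concentration required for 50% inhibition of growth. TGI: concentration producing complete growth inhibition.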

Legend:
Test in all cases: NCI anticancer screen, dose series, 48 h
[1] = tested on: MCF7 breast
[2] = tested on: MDA-MB-435
[3] = tested on: BT-549 breast
[4] = tested on: T-47D breast
[5] = tested on: PC-3 prostate
[6] = tested on: UACC-62 melanoma

Compound	GI50 [1] [µM]	TGI [1] [µM]	GI50 [2] [µM]	TGI [2] [µM]	GI50 [3] [µM]	TGI [3] [µM]	GI50 [4] [µM]	TGI [4] [µM]	GI50 [5] [µM]	TGI [5] [µM]	GI50 [6] [µM]	TGI [6] [µM]
CO[C@@H]1[C@H](N(C)C(=O)c2ccccc2)C[C@@H]2O[C@]1(C)n1c3ccccc3c3c4c(c5c6ccccc6n2c5c31)C(=O)NC4=O	1.84	> 100	0.775	> 100	1.21	> 100	0.811	> 100	0.562	> 100	0.54	> 100
CSc1nc(SC)c2c(C)cn(Cc3ccccc3)c2n1	–	> 100	–	> 100	–	> 100	–	> 100	–	> 100	–	> 100
C#CCOCCCC(=O)O	–	> 100	–	–	–	> 100	–	> 100	–	> 100	–	> 100
Cc1cc(S(=O)(=O)Nc2n[nH]c(-c3ccc(Cl)cc3)c2C#N)c(S)cc1Cl	> 100	> 100	> 100	> 100	> 100	> 100	> 100	> 100	> 100	> 100	> 100	> 100
O=P1(O)c2ccccc2CSCc2ccccc21	–	> 100	–	> 100	–	> 100	–	> 100	–	> 100	–	> 100
COc1ccc(/C=C/C(=O)c2ccc(B(O)O)cc2)cc1O	3.48	32.5	2.11	5.5	6.8	20.1	13.5	50.9	15	50.1	14.3	33.2
O=C(NCCNc1nccc(-c2c(-c3ccc(F)cc3)nc3sccn23)n1)Nc1cccc(C(F)(F)F)c1	3.73	19.5	3.12	11.4	13.2	30.5	2.15	8.48	3.93	42.3	4.75	17
COC(=O)Nc1nc2ccc(C(=O)C3CC3)cc2[nH]1	0.331	> 56.1	0.134	0.324	1.01	> 30.7	–	–	0.346	> 100	0.487	> 100
CN1CCN(C(=O)OCc2nc3c(N4CCOCC4)nc(-c4ccccc4)nc3n2C)CC1	0.389	2.11	1.06	2.39	1	2.25	1.53	4.51	1.09	2.49	1.25	2.52
N#C/C(=C\c1ccc([N+](=O)[O-])cc1)n1nnc2cc(F)c(F)cc21	1.29	3.4	2.32	5.85	1.77	4.17	1.09	2.74	1.72	4	1.66	3.36
COc1ccc(-c2nc(Nc3ccc(F)cc3)nc(Nc3ccc4c(c3)nc(C)n4Cc3ccccc3)n2)cc1	3.14	> 100	3.27	> 100	3.52	> 100	2.42	44.2	3.11	> 100	6.66	> 100
O=C(NCCCNc1cc(-c2cn(-c3ccccc3)nc2-c2cccc(O)c2)ccn1)c1ccc(F)cc1	2.32	9.92	1.74	4.44	1.59	6.31	1.14	5.11	2.81	15.7	2.05	5.08
CCCC(c1cc(C(C)(C)C)c(O)cc1C)c1cc(C(C)(C)C)c(O)cc1C	–	4.85	–	7.18	–	22.7	–	8.92	–	8.78	–	4.95
CC(C)[C@]12O[C@H]1[C@@H]1O[C@]13[C@]1(O[C@H]1C[C@H]1C4=C(CC[C@@]13C)C(=O)OC4)[C@@H]2OC(=O)OC(C)(C)C	< 0.0144	> 100	0.0122	0.0478	0.0172	0.0616	0.027	> 100	0.0238	> 41.3	0.0178	0.0571
COc1ccc2c(c1)OC(N)=C(C#N)C2c1ccc(F)c(F)c1 (configuration not stated)	0.333	> 67.8	0.133	0.664	0.598	65.6	0.334	> 55.3	0.569	> 100	0.418	> 100
O=C1NC(=N[C@@H]2C[C@H]2c2ccccc2)S/C1=C\c1ccc2ncccc2c1	0.795	4.95	0.688	2.85	1.57	6.49	1.81	13.8	3.27	9.09	1.2	5.61
Cc1cc(C)c2c(=O)cc(-c3ccc(F)cc3)[nH]c2n1	–	> 100	18.6	40.6	–	> 100	–	> 100	30.1	> 100	–	> 100
OC1CCC(COC(c2ccccc2)(c2ccccc2)c2ccccc2)O1 (configuration not stated)	–	33.3	–	39.9	–	40.6	–	38.2	–	24.3	–	33.8
CCOC(=O)c1cc2c(OC)cc(OC)cc2oc1=O	–	> 100	–	> 100	–	> 100	–	> 100	–	> 100	–	> 100
NS(=O)(=O)c1ccc(N=Nc2c(O)[nH]c3cccc(CCc4ccncc4)c23)cc1	> 25	> 25	> 25	> 25	> 25	> 25	> 25	> 25	> 25	> 25	> 25	> 25
ClCCN(CCCl)c1ccc(OCc2ccccc2)cc1	3.6	35.5	8.16	32.6	2.5	22.6	4.4	28.7	5.28	> 100	–	–
